Results on one substance are retold here after patent US20210206791.

For this data set the following is noted: the molecule shown is the open-chain precursor, crosslinker bond, CH3CN/H2O 1:1, 0.1 mM, 25.0 °C.

Several values for one entry are separate records, joined by “and”; a condition that tells them apart may be missing. Equal values may be shown once. Read-outs that look alike come from different tables or passages of the source.

With “H-Ala-Cys-Tyr-Lys-Arg-Ser-Asp-Phe-Thr-Cys-Gly-Gly-Gly-Ser-NH2?”, the ring closure, yield after HPLC by setting is: (bis-Pd aryl reagent 6b (2 equiv)/Tris pH 7.5) 85%; (bis-Pd aryl reagent 6c (2 equiv)/Tris pH 7.5) 70%; (bis-Pd aryl reagent 6e (2 equiv)/Tris pH 7.5) 100%; (bis-Pd aryl reagent 6d (2 equiv)/Tris pH 7.5) 84%; (bis-Pd aryl reagent (2 equiv, not named)/Tris pH 7.5) 79% and 92% and 94%.
